Counter-ions that a name gives are not always drawn.
Experiment: Dynamic vapor sorption (DVS)
Format: physicochemical
Procedure: The sample for moisture analysis was allowed to dry at 25° C. for up to 4 hours under a stream of dry nitrogen. The relative humidity is then increased stepwise from 10 to 90% relative humidity (adsorption scan) allowing the sample to equilibrate for a maximum of four hours before weighing and moving on to the next step. The desorption scan is measured from 85 to 0% relative humidity with the same equilibration time. The sample is then dried under a stream of dry nitrogen at 80° C. for 2 hours or until no weight loss is observed.
DVS analysis was carried out using a TA Instruments Q5000 Dynamic Vapor Sorption analyzer. The instrument was calibrated with standard weights and a sodium bromide standard for humidity. Approximately 10-25 mg of sample was loaded into a metal-coated quartz pan for analysis. The sample was analyzed at 25° C. with a maximum equilibration time of one hour in 10% relative humidity (RH) steps from 5 to 95% RH (adsorption cycle) and from 95 to 5% RH (desorption cycle). The movement from one step to the next occurred either after satisfying the equilibrium criterion of 0.01% weight change or, if the equilibrium criterion was not met, after one hour. The percent weight change values were calculated.

Compound: CNC(C)C(=O)c1ccc2c(c1)OCO2 (racemic) [(rac)-Methylone Hydrochloride, 3,4-methylenedioxy-N-methylcathinone hydrochloride]
- relative humidity above which water uptake occurs (DVS, FIG. 26): above 75 % RH
- physical stability after moisture sorption-desorption analysis (between 5% RH and 95% RH): physically stable
- water gain (between 5% RH and 95% RH): 0.33%
- water loss (between 95% RH and 5% RH): 0.15%
- appearance after humidity exposure (exposed to 75% RH for 2 hours): became tacky and stuck to the vial

— US20240294488A1, “ISOTOPOLOGES, SALTS, CRYSTALLINE FORMS, STEREOISOMERS, OF METHYLONE AND ETHYLONE AND METHODS OF USE THEREOF” (Terran Biosciences Inc., priority 2021, published 2024)
